Data on two compounds can be found in patent US20090069441A1, “Motuporamine Mimic Agents” (priority 2006, published 2009).

Test [1] concerns Drosophila imaginal leg discs. Put plainly: Imaginal disc eversion assay. In kind it is cell-based, Drosophila melanogaster. The following applies: Drosophila melanogaster, 15 hr incubation in Robb's medium. The method, then:
DihydroMotuporamine C, 4a, was used to develop an imaginal disc assay in Drosophila flies. The imaginal leg discs were collected by microscopic dissection from maggots. […] Inhibition was measured as failure of the disc to fully develop into a fly leg after 15 hr of incubation in Robb's growth medium. This presumably occurs by overactivation of Rho, an important signaling pathway in development. Hyper-stimulation of this pathway is sufficient to block development of the fly leg.
Fly Stocks: 20 female and 5 male wild type Oregon variant of Drosophila melanogaster interbred in blue food medium for 24 hours then flies are removed. Third instar wall-crawling larvae collected then dissected on the sixth day. Flies kept in 25° C. incubation chamber.
Blue Food Preparation: Standard corn meal medium heated then mixed completely with aqueous 1% Bromophenol Blue. The food medium is cooled for one day or more before use.
Dissection Medium: Ringer's Buffer with 10 uL 0.1% BSA. Ringer's Medium consists of 130 mM NaCl, 5 mM KCl, 1.5 mM CaCl2-2H2O, Stored at room temperature (23° C.), BSA added before dissection.
Cultivation Medium: Minimal Robb's Medium with 10 uL 0.1% BSA. Minimal Robb's Medium consists of 40 mM KCl, 0.4 mM KH2PO4, 40 mM NaCl, 0.4 mM NaH2PO4.7H2O, 1.2 mM MgSO4.7H2O, 1.2 mM MgCl2-6H2O, 1 mM CaCl2-2H2O, 10 mM Glucose, 0.2 mM L-asparagine, 4.0 mM L-glutamine, 0.16 mM Glycine, 0.64 mM L-leucine, 0.32 mM L-proline, 0.16 mM R-Serine, 0.64 mM L-valine. Stored at −25° C. One day before dissection, aliquot defrosted in 4° C. Add BSA then warmed to room temperature (23° C.) before dissection.
0.1% BSA: 0.1 g BSA fraction V (Sigma#A-9647) in 10 mL distilled H2O, Stored at 4° C.
Developmental Hormone: 1 mg 20-hydroxyecdysone (Sigma #H-5142) in 1 mL 100% Ethanol. Stored at −25° C. Before use, stock is diluted 10× (1 mL added to 9 mL of 100% Ethanol). 10 μL of diluted 20-hydroxyecdysone is added to culture.
Dissection Procedures: Third instar larvae are removed from cultivation bottle with a wetted brush and washed in dH2O to remove food medium clinging to larvae. The cleaned larvae are dissected in Ringer's Medium using forceps. The imaginal discs are washed in fresh Ringer's Medium, and then cultivated with 1 mL of Robb's Medium in 12-well culture plate. Each culture well should have 30˜40 imaginal discs.
Culturing Procedures: In a larger container, place the 12-well culture plate on a moist towel, then seal the large container. Cultivate at 25° C. for 15 hours. Evaluation: Three categories will be used to grade the eversion of each imaginal disc. Full Eversion—the leg is fully extended from the disc. Partial Eversion—the leg is protruding from the epithelial. No Eversion—no sign of any protrusion.

Test [2] deals with L1210 cells. The following applies: 48 h incubation; data originally reported in Ref; cited from earlier work.
The target in test [3] is polyamine transporter (PAT). The note with it: data originally reported in Ref; read-out: L1210 Ki value; cited from earlier work.
In test [4] the test system is CHO-MG cells. The note with it: 48 h incubation; data originally reported in Ref; cited from earlier work.
For test [5], the system named is CHO cells. The following applies: data originally reported in Ref, cited from earlier work; for IC50: 48 h incubation.

The structures appear in SMILES notation.

As for `NCCCNCCCNCc1c2ccccc2cc2ccccc12` [Compound 6a], at 18 µM the inhibition in test [1] was 60%. In addition, the IC50 (usually the concentration that inhibits the measured activity by half) in test [2] is 1.8 µM; in test [4], 3.4 µM; in test [5], 1.9 µM. Besides, the Ki (usually the dissociation constant of the complex between target and ligand, obtained from inhibition or displacement) in test [3] was 33.4 µM. In addition, the “IC50 Ratio (CHO-MG/CHO), a measure of PAT selectivity” value in test [5] is 1.8.

For the compound `NCCCNCCCN1CCCCCCCCCCCCCC1` [Compound 4a, Dihydromotuporamine C, reference compound], the IC50 is 3 µM in test [2], 10 µM in test [4] and 10.5 µM in test [5]. The Ki in test [3] is 9.9 µM. Besides, the “IC50 Ratio (CHO-MG/CHO), a measure of PAT selectivity” value in test [5] is given as 1.
